Reference: article PMC9962329, “Photocaging of Pyridinylimidazole-Based Covalent JNK3 Inhibitors Affords Spatiotemporal Control of the Binding Affinity in Live Cells” (Pharmaceuticals, 2023)

Columns and labels:
JNK3 [1] = molecular target: T1, JNK3 (Homo sapiens, UniProt P53779); assay: radiometric JNK3 activity assay at Eurofins Discovery; format: biochemical; conditions: for IC50: radiometric JNK3 activity assay; for decreased biological activity compared to parent compound 1: radiometric assay, relative to 1 (IC50 = 6 nM)
JNK3 [2] = molecular target: T1, JNK3; assay: NanoBRET TE intracellular JNK3 assay; format: cell-based; conditions: for decreased binding affinity compared to lead structure 1 / IC50: NanoBRET TE intracellular JNK3 assay; for decreased binding affinity compared to lead structure 1: relative to 1 (IC50 = 243 nM); for IC50: tracer K-10 0.25 µM, means of at least two independent experiments, read-out: JNK3 IC50 ± SEM
Experimental: The NanoBRET™ TE intracellular JNK3 assay was performed as previously described by Andreev et al., with minor modifications.
Cells were treated with trypsin and centrifuged (210× g, 5 min) one day prior to the experiment. Afterwards, cells were resuspended in Leibovitz’ L-15 medium, supplemented with 5% FCS and 10 mM HEPES, and the suspension was adjusted to a density of 300.000 cells per mL. Meanwhile the transfection reagent was prepared. For a 96-well plate, transfection carrier DNA (4 µg) (Promega, Fitchburg, WI, USA) and JNK3-NanoLuc® Fusion vector (0.45 µg) (Promega) were diluted in Leibovitz’ L-15 medium (450 µL) and, finally, X-tremeGENE HP (13.5 µL) (Roche Diagnostics, Mannheim, Germany) was added. The mixture was incubated for 20 min at room temperature. Subsequently, the lipid–DNA complex was added to 9 mL of the cell suspension. A total of 80 µL of this cell suspension were added to each well of a white 96-well plate (Brand, Wertheim, Germany), which was incubated for 24 h at 37 °C (no additional CO2).
The fluorescent tracer K-10 (Promega, Mannheim, Germany) was diluted in DMSO to a concentration of 25 µM (100-fold more concentrated than the final assay concentration). This was further diluted 10-fold using the tracer dilution buffer (Promega, Mannheim, Germany), yielding a dilution which was 10-fold more concentrated than the final assay concentration. Next, 10 µL of the final fluorescent tracer dilution were added to the cells (the final concentration of K-10 in the assay was 0.25 µM).

JNK3 [3] = molecular target: T1, JNK3; assay: compound washout (kinetic analysis) in the NanoBRET assay; format: cell-based; conditions: 2 h incubation at 10-fold IC50, four washes, tracer 1 µM
Experimental: To study the putative covalent binding of inhibitors 8 and 13, we next applied the compound washout method in the NanoBRET^TM assay. Briefly, we established a protocol where the compound dissociation of 8 and 13 was determined indirectly by their ability to inhibit binding of the ATP-competitive tracer. The covalent inhibitor 1 was used as a positive control, and the propionamide 10 was used as a negative control.
For kinetic analyses experiments, plates were coated with crosslinked gelatin to improve cell adhesion. The transfection of the cells was carried out as described above, but 90 µL of cell suspension were seeded. The next day, cells were first incubated with the test compound in a 10-fold concentration of the respective IC50 value. After 2 h, the unbound compound was removed by washing the cells four times with 100 µL of Leibovitz’ L-15. Furimazine was then added according to the manufacturer`s protocol. Afterwards, a near-saturating concentration of tracer (1 µM) was added, and the measurement was started immediately.

JNK3(C154A)-NLuc = molecular target: T2, JNK3(C154A)-NLuc (Homo sapiens, UniProt P53779, C154A); assay: NanoBRET TE intracellular assay with JNK3(C154A)-NLuc mutant; format: cell-based; conditions: single point mutation C154A
T2 construct: mutant made in house by PCR
Experimental: To generate the cDNA of the JNK3(C154A)-NLuc mutant, JNK3-NanoLuc® Fusion vector (Promega) was used as a template, and two partially overlapping primers (5′-[…] and 5′-[…]) (synthesized by Eurofins, Ebersberg) annealed to the template. Phusion HF DNA Polymerase was obtained from New England BioLabs (Frankfurt, Germany). The polymerase chain reaction (PCR) was carried out as described in the Phusion HF polymerase protocol. The PCR product was treated with Dpn I endonuclease and transformed into competent E. coli Top 10 cells. Point mutation was confirmed by sequencing (Eurofins Discovery).

JNK3 [4] = molecular target: T1, JNK3; parameters: method as in PMID 34081840; conditions: light pulses at 390 nm, trans-cis switch; cited from earlier work
JNK3 [5] = molecular target: T1, JNK3; parameters: method as in PMID 34081840; conditions: cellular NanoBRET assay, light pulses at 400 nm; cited from earlier work

T1 sequence (P53779 whole entry): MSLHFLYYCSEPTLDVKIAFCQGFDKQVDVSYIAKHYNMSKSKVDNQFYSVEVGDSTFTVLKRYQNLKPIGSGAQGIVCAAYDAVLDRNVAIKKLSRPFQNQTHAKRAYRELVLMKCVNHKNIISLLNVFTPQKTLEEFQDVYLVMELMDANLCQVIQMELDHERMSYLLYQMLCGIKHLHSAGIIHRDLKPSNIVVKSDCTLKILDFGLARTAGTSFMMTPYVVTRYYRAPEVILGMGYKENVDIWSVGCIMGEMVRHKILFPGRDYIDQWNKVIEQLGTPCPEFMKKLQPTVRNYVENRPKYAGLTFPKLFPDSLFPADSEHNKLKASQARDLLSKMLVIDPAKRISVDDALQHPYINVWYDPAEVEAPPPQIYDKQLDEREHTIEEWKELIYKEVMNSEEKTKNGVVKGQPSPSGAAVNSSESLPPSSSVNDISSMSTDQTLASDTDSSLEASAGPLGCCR
T2 sequence (P53779 whole entry C154A): as the sequence (P53779 whole entry) above, with C154A counted along it

Row | Compound | IC50 (JNK3 [1]) | decreased biological activity compared to parent compound 1 (JNK3 [1]) | decreased binding affinity compared to lead structure 1 (JNK3 [2]) | IC50 (JNK3 [2]) | compound dissociation after washout (displacement by tracer) (JNK3 [3]) | change in binding affinity for JNK3(C154A)-NLuc versus wildtype JNK3-NLuc (JNK3(C154A)-NLuc) | increase in biochemical activity by light (factor) (JNK3 [4]) | increase in inhibitory potency by light (factor) (JNK3 [5]) | decrease in JNK3 binding by introduction of the photocleavable protecting group (JNK3 [2]; NanoBRET assay, without irradiation, relative to parent 13)
1 | C=CC(=O)Nc1cccc(NC(=O)c2ccc(Nc3cc(-c4c(-c5ccc(F)cc5)nc(SC)n4C)ccn3)cc2)c1 [compound 13, N-(3-Acrylamidophenyl)-4-((4-(4-(4-fluorophenyl)-1-methyl-2-(methylthio)-1H-imidazol-5-yl)pyridin-2-yl)amino)benzamide hydrotrifluoroacetate] | 13 nM | two-fold decreased | 5.5 fold | 1060 ± 252 nM | remained persistently bound | dramatic decrease in the binding affinity |  |  | 
2 | C=CC(=O)Nc1cccc(C(=O)Nc2ccc(Nc3cc(-c4c(-c5ccc(F)cc5)nc(SC)n4C)ccn3)cc2)c1 [compound 1, acrylamido-N-(4-((4-(4-(4-fluorophenyl)-1-methyl-2-(methylthio)-1H-imidazol-5-yl)pyridin-2-yl)amino)phenyl)benzamide, reference compound] | 6 nM |  |  | 243 ± 75 nM | remained persistently bound |  |  |  | 
3 | C=CC(=O)Nc1ccc2c(c1)CCc1cc(Nc3cc(-c4c(-c5ccc(F)cc5)nc(SC)n4C)ccn3)ccc1/N=N\2 [compound 2] |  |  |  |  |  |  | 30 | factor of only two | 
4 | C=CC(=O)Nc1cccc(NC(=O)c2ccc(N(Cc3cc(OC)c(OC)cc3[N+](=O)[O-])c3cc(-c4c(-c5ccc(F)cc5)nc(SC)n4C)ccn3)cc2)c1 [compound 17, N-(3-Acrylamidophenyl)-4-((4,5-dimethoxy-2-nitrobenzyl)(4-(4-(4-fluorophenyl)-1-methyl-2-(methylthio)-1H-imidazol-5-yl)pyridin-2-yl)amino)benzamide hydrotrifluoroacetate] |  |  |  | 9490 ± 538 nM |  |  |  |  | nearly one order of magnitude
5 | CCC(=O)Nc1cccc(C(=O)N(C)c2ccc(Nc3cc(-c4c(-c5ccc(F)cc5)nc(SC)n4C)ccn3)cc2)c1 [compound 10, N-(4-((4-(4-(4-Fluorophenyl)-1-methyl-2-(methylthio)-1H-imidazol-5-yl)pyridin-2-yl)amino)phenyl)-N-methyl-3-propionamidobenzamide] | 24 nM |  |  | 5020 ± 97 nM | quickly displaced by the tracer |  |  |  | 
6 | C=CC(=O)Nc1cccc(C(=O)N(C)c2ccc(Nc3cc(-c4c(-c5ccc(F)cc5)nc(SC)n4C)ccn3)cc2)c1 [compound 8, 3-Acrylamido-N-(4-((4-(4-(4-fluorophenyl)-1-methyl-2-(methylthio)-1H-imidazol-5-yl)pyridin-2-yl)amino)phenyl)-N-methylbenzamide hydrotrifluoroacetate] | 14 nM | two-fold decreased | 4 fold | 1360 ± 342 nM | remained persistently bound | dramatic decrease in the binding affinity |  |  | 
7 | CCC(=O)Nc1cccc(NC(=O)c2ccc(Nc3cc(-c4c(-c5ccc(F)cc5)nc(SC)n4C)ccn3)cc2)c1 [compound 14, 4-((4-(4-(4-Fluorophenyl)-1-methyl-2-(methylthio)-1H-imidazol-5-yl)pyridin-2-yl)amino)-N-(3-propionamidophenyl)benzamide] | 22 nM |  |  | > 10000 nM |  |  |  |  | 
